The values below come from patent publication US10479794B2, “Cyclic ether derivatives of pyrazolo[1,5-a]pyrimidine-3-carboxyamide” (Boehringer Ingelheim International GmbH, priority 2015, dated 2019).

This data set concerns human MDR1 P-gp. Description: Assessment of efflux in MDCK cells transfected with the human MDR1 gene (MDCK assay). It is filed as in vitro ADME, canine. Particulars: dog; for efflux ratio at 2 h: MDCK-MDR1, pH 7.4, MDCK-MDR1, Papp (b-a) divided by Papp (a-b); for Papp A→B at 2 h: MDCK-MDR1, pH 7.4, MDCK-MDR1 monolayers, apical-to-basal, pH 7.4, 37° C. The method, then: Assessment of Efflux in Madin-Darby Canine Kidney Cells Transfected with the Human MDR1 Gene (MDCK Assay)
Apparent permeability coefficients (PE) of the compounds across the MDCK-MDR1 cell monolayers are measured (pH 7.4, 37° C.) in apical-to-basal (AB) and basal-to-apical (BA) transport direction. AB permeability (PEAB) represents drug absorption from the blood into the brain and BA permeability (PEBA) drug efflux from the brain back into the blood via both passive permeability as well as active transport mechanisms mediated by efflux and uptake transporters that are expressed on the MDCK-MDR1 cells, predominantly by the overexpressed human MDR1 P-gp. The compounds are assigned to permeability/absorption classes by comparison of the AB permeabilities with the AB permeabilities of reference compounds with known in vitro permeability and oral absorption in the human. Identical or similar permeabilities in both transport directions indicate passive permeation, vectorial permeability points to additional active transport mechanisms. Higher PEBA than PEAB indicates the involvement of active efflux mediated by MDR1 P-gp. Active transport is concentration-dependently saturable.
MDCK-MDR1 cells (1-2×10e5 cells/1 cm2 area) are seeded on filter inserts (Costar transwell polycarbonate or PET filters, 0.4 μm pore size) and cultured (DMEM) for 7 days. Subsequently, the MDR1 expression is boosted by culturing the cells with 5 mM sodium butyrate in full medium for 2 days. Compounds are dissolved in appropriate solvent (like DMSO, 1-20 mM stock solutions). […] The transport solution (TL) is applied to the apical or basolateral donor side for measuring A-B or B-A permeability (3 filter replicates), respectively. The receiver side contains the same buffer as the donor side. Samples are collected at the start and end of experiment from the donor and at various time intervals for up to 2 hours also from the receiver side for concentration measurement by HPLC-MS/MS or scintillation counting. Sampled receiver volumes are replaced with fresh receiver solution. Efflux ratio is calculated dividing the Papp (b-a) values by the Papp (a-b) values.

One may read the efflux ratio as a quotient of directional permeabilities that is used to spot active efflux. The term Papp A→B denotes how fast a substance crosses the layer from the apical side. The low end stands for slow passage, the high end for fast passage. Turning to `O=C(NC1(c2ccc(C(F)(F)F)cc2)CCOC1)c1cnn2cc(C3CC3)cnc12` (racemic) [Example 37], the efflux ratio at 2 h was 0.5 and the Papp A→B at 2 h is 86 ×10⁻⁶ cm/s.

Consider `Cc1cnc2c(C(=O)NC3(c4ccc(C(F)(F)F)cc4F)CCOCC3O)cnn2c1` (racemic) [Example 46], for which the Papp A→B at 2 h turned out to be 60 ×10⁻⁶ cm/s. The compound `Cc1nn2cc(C3CC3)cnc2c1C(=O)NC1(c2ccc(C(F)(F)F)nc2)CCOCC1O` (racemic) [Example 51] yielded an apparent permeability from apical to basolateral (Papp A→B) at 2 h of 11 ×10⁻⁶ cm/s. This Papp A→B at 2 h lies about 5.5-fold lower than the previous one. `CC1(O)COCCC1(NC(=O)c1cnn2cc(C3CC3)cnc12)c1ccc(C(F)(F)F)cc1F` (racemic) [Example 53] registered an apparent permeability from apical to basolateral (Papp A→B) at 2 h of 15 ×10⁻⁶ cm/s. For the compound `O=C(NC1(c2ccc(C(F)(F)F)cc2F)COCC1O)c1cnn2cc(C3CC3)cnc12` (single isomer, unassigned) [Example 69], the efflux ratio at 2 h is 1.3 and the Papp A→B at 2 h is 25 ×10⁻⁶ cm/s.

As to `Cc1cnc2c(C(=O)NC3(c4ccc(C(F)(F)F)cc4F)CCOCC3O)cnn2c1` (single isomer, unassigned) [Example 81a], the apical-to-basolateral permeability (Papp A→B) at 2 h stood at 60 ×10⁻⁶ cm/s. Turning to `O=C(NC1(c2ccc(C(F)(F)F)cc2F)CCOCC1O)c1cnn2cc(C3CC3)cnc12` (single isomer, unassigned) [Example 82a], the efflux ratio at 2 h was found to be 1 and the apical-to-basolateral permeability (Papp A→B) at 2 h was 59 ×10⁻⁶ cm/s. `Cc1cnc2c(C(=O)NC3(c4ccc(C(F)(F)F)cc4F)CCOCC3(C)O)cnn2c1` (single isomer, unassigned) [Example 83a] displayed a Papp A→B at 2 h of 34 ×10⁻⁶ cm/s. With `Cc1cnc2c(C(=O)NC3(c4ccc(C(F)(F)F)cc4F)CCOCC3)cnn2c1` [Example 2], the efflux ratio at 2 h turned out to be 0.6 and the apparent permeability from apical to basolateral (Papp A→B) at 2 h came out at 84 ×10⁻⁶ cm/s. In the case of `O=C(NC1(c2ccc(C(F)(F)F)cc2F)CCOCC1)c1cnn2cc(F)cnc12` [Example 3], the efflux ratio at 2 h came out at 0.7 and the Papp A→B at 2 h turned out to be 97 ×10⁻⁶ cm/s.

For `Cc1nn2cc(C3CC3)cnc2c1C(=O)NC1(c2ncc(C(F)(F)F)cc2F)CCOCC1` [Example 17], the efflux ratio at 2 h came to 0.6 and the apical-to-basolateral permeability (Papp A→B) at 2 h turned out to be 85 ×10⁻⁶ cm/s. For `Cc1nn2cc(C3CC3)cnc2c1C(=O)NC1(c2ccc(C(F)(F)F)cn2)CCOCC1` [Example 21], the efflux ratio at 2 h came out at 0.6 and the Papp A→B at 2 h was 94 ×10⁻⁶ cm/s.

Take `Cc1nn2cc(C3CC3)cnc2c1C(=O)NC1(c2ccc(C(F)(F)F)nc2)CCOCC1` [Example 25]: the efflux ratio at 2 h was found to be 0.8 and the Papp A→B at 2 h is 100 ×10⁻⁶ cm/s.
